tested on: hedgehog signaling pathway; assay: Gli-Luc Reporter Assay for Hh Pathway Inhibition (TMHh-12 cells, pTA-8×Gli-Luc reporter); type: cell-based, Mouse; conditions: Mus musculus, TMHh12, Ag1.5 1 nM; read-out: Hedgehog Inhibition IC50 (nM) (Ag1.5 1 nM)
Summary of the method: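 Mouse TM3 cells stably carrying an 8×Gli-firefly luciferase reporter, in 2% FBS medium; pathway activated with recombinant mouse Shh (8 μg/mL) or Smo agonist, compounds added at varying concentrations for 48 h. Luminescence read; IC50 at 50% signal reduction. Toxicity checked in TM3 cells (CellTiter-Glo) or constitutive-luciferase TM3-Luc cells.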

IC50	Compound
3 nM	CC(C)(C)OC(=O)N1CCc2c(cccc2Nc2ccc(Cl)c(-c3ncc(-c4ccccc4)[nH]3)c2)C1 [Compound 45]
135 nM	Cc1ccc(Nc2cccc3c2CCN(S(C)(=O)=O)C3)cc1-c1cnc(N(C)C)nc1 [Compound 124]
1.2 nM	Clc1ccc(Nc2cccc3c2CCN(C2CCCCCC2)C3)cc1-c1ncc(-c2ccccc2)[nH]1 [Compound 30]
4.5 nM	NC(=O)N1CCc2c(cccc2Nc2ccc(Cl)c(-c3ncc(-c4ccccc4)[nH]3)c2)C1 [Compound 43]
0.06 nM	O=S1(=O)CCC(N2CCc3c(cccc3Nc3ccc(Cl)c(-c4ncc(-c5ccccc5)[nH]4)c3)C2)CC1 [Compound 3]
2.6 nM	O=C1c2cccc(Nc3ccc(Cl)c(-c4ncc(-c5ccccc5)[nH]4)c3)c2CCN1C[C@H](O)CO [Compound 35]

same assay, conditions: Mus musculus, TMHh12, enzymatic and cellular assays for the inhibition of hedgehog signaling pathways; read-out: IC50 Ranges

IC50	Compound
1 to 10 nM	CC(C)(C)OC(=O)N1CCc2c(cccc2Nc2ccc(Cl)c(-c3ncc(-c4ccccc4)[nH]3)c2)C1 [Compound 45]
100 to 1000 nM	Cc1ccc(Nc2cccc3c2CCN(S(C)(=O)=O)C3)cc1-c1cnc(N(C)C)nc1 [Compound 124]
0.001 to 1 nM	O=C(CO)N1CCc2c(cccc2Nc2ccc(Cl)c(-c3ncc(-c4ccccc4)[nH]3)c2)C1 [Compound 72]
1 to 10 nM	Cc1ccc(Nc2cccc3c2CCN(C[C@H](O)CO)C3)cc1-c1ccc(F)cn1 [Compound 195]
0.001 to 1 nM	CCOc1cnc(-c2cc(Nc3cccc4c3CCN(S(C)(=O)=O)C4)ccc2C)cn1 [Compound 314]
1 to 10 nM	Clc1ccc(Nc2cccc3c2CCN(C2CCCCCC2)C3)cc1-c1ncc(-c2ccccc2)[nH]1 [Compound 30]
1 to 10 nM	NC(=O)N1CCc2c(cccc2Nc2ccc(Cl)c(-c3ncc(-c4ccccc4)[nH]3)c2)C1 [Compound 43]
0.001 to 1 nM	O=S1(=O)CCC(N2CCc3c(cccc3Nc3ccc(Cl)c(-c4ncc(-c5ccccc5)[nH]4)c3)C2)CC1 [Compound 3]
1 to 10 nM	CCS(=O)(=O)CCN1CCc2c(cccc2Nc2ccc(C)c(-c3ncccc3F)c2)C1 [Compound 283]
0.001 to 1 nM	O=C1c2cccc(Nc3ccc(Cl)c(-c4ncc(-c5ccccc5)[nH]4)c3)c2CCN1C1(CO)CC1 [Compound 88]
10 to 100 nM	Cc1ccc(Nc2cccc3c2CCN(S(C)(=O)=O)C3)cc1-c1nc2ncncc2[nH]1 [Compound 63]
10 to 100 nM	Cc1ccc(-c2nc(Nc3cccc4c3CCN(CCS(C)(=O)=O)C4)ccc2C)nc1 [Compound 309]
10 to 100 nM	CCOc1ccc(-c2nc(Nc3cccc4c3CCN(C3CS(=O)(=O)C3)C4)ccc2C)nn1 [Compound 329]
100 to 1000 nM	Cc1ccc(Nc2cccc3c2CCN(S(C)(=O)=O)C3)cc1-c1ccc(C(N)=O)cc1 [Compound 142]
1 to 10 nM	CNS(=O)(=O)N1CCc2c(cccc2Nc2ccc(Cl)c(-c3ncc(-c4ccccc4)[nH]3)c2)C1 [Compound 25]
1 to 10 nM	O=C1c2cccc(Nc3ccc(Cl)c(-c4ncc(-c5ccccc5)[nH]4)c3)c2CCN1C[C@H](O)CO [Compound 35]
10 to 100 nM	Cc1ccnc(-c2cc(Nc3cccc4c3CCN(S(C)(=O)=O)C4)ccc2C)n1 [Compound 219]
1 to 10 nM	CCN1CCC(N2CCc3c(Nc4ccc(Cl)c(-c5ncc(-c6ccccc6)[nH]5)c4)cccc3C2=O)CC1 [Compound 32]
10 to 100 nM	Cc1ccc(Nc2nccc3c2CCN(S(C)(=O)=O)C3)cc1-c1cc2ccccc2cn1 [Compound 331]
1000 to 10000 nM	CS(=O)(=O)N1CCc2c(cccc2Nc2ccc(OC(F)(F)F)c(-c3ccc(C#N)cc3)c2)C1 [Compound 150]
10 to 100 nM	Cc1ccc(-c2cc(Nc3ncnc4c3CCN(C3CCS(=O)(=O)CC3)C4)ccc2C)nc1 [Compound 277]
10 to 100 nM	Cc1ccc(Nc2ncnc3c2CCN(C2CS(=O)(=O)C2)C3)cc1-c1cc2ccccc2cn1 [Compound 304]
100 to 1000 nM	CS(=O)(=O)N1CCc2c(cccc2Nc2ccc(C#N)c(-c3ccc(C#N)cc3)c2)C1 [Compound 155]
1 to 10 nM	CC(C)(C(=O)O)N1CCc2c(cccc2Nc2ccc(Cl)c(-c3nc(-c4ccccc4)c[nH]3)c2)C1 [Compound 65]
0.001 to 1 nM	Cc1ccc(Nc2ncnc3c2CCN(S(C)(=O)=O)C3)cc1-c1cc2ccccc2cn1 [Compound 307]
10 to 100 nM	Cc1ccc(Nc2ncnc3c2CCN(CCS(C)(=O)=O)C3)cc1-c1cc2ccccc2cn1 [Compound 305]
0.001 to 1 nM	Cc1ccc(NC(=O)c2cc(Nc3cccc4c3CCN(S(C)(=O)=O)C4)ccc2C)cc1 [Compound 186]
1 to 10 nM	Cc1ncc(Nc2cccc3c2CCN(S(C)(=O)=O)C3)cc1-c1nc2ccccc2[nH]1 [Compound 111]
100 to 1000 nM	Cc1ccc(-c2cc(Nc3cccc4c3CCN(C[C@H](O)CO)C4)ccc2C)nn1 [Compound 209]

same assay, conditions: enzymatic and cellular assays for the inhibition of hedgehog signaling pathways; read-out: IC50 Ranges

IC50	Compound
0.001 to 1 nM	Cc1ccc(Nc2cccc3c2CCN([C@H]2CCS(=O)(=O)C2)C3)cc1-c1ncccc1F [Compound 343]

From patent US9216964B2, “Hedgehog pathway modulators” (Novartis AG, priority 2008, dated 2015)
